ChEMBL document CHEMBL4359901, “Cyclic enaminone as new chemotype for selective cyclooxygenase-2 inhibitory, anti-inflammatory, and analgesic activities” (Eur J Med Chem, 2019)
Values belong to the molecule of their own block, whether it stands above or below them.

Tests used:
[1] = target: Prostaglandin G/H synthase 1 (Ovis aries) (UniProt P05979); assay: Inhibition of ovine COX1 assessed as reduction in PGF2alpha at 10 uM incubated for 2 mins using arachidonic acid as substrate by ELISA relative to control
[2] = target: Prostaglandin G/H synthase 2 (Homo sapiens) (UniProt P35354); assay: Inhibition of recombinant human COX2 assessed as reduction in PGF2alpha at 10 uM incubated for 2 mins using arachidonic acid as substrate by ELISA relative to control
[3] = Antioxidant activity assessed as DPPH radical scavenging activity at 40 uM/ml incubated for 20 mins by spectrophotometric method relative to control; assay type: functional
[4] = Antioxidant activity assessed as DPPH radical scavenging activity at 20 uM/ml incubated for 20 mins by spectrophotometric method relative to control; assay type: functional
[5] = Antioxidant activity assessed as DPPH radical scavenging activity incubated for 20 mins by spectrophotometric method; assay type: functional
[6] = Antioxidant activity assessed as DPPH radical scavenging activity at 60 uM/ml incubated for 20 mins by spectrophotometric method relative to control; assay type: functional
[7] = Antioxidant activity assessed as DPPH radical scavenging activity at 80 uM/ml incubated for 20 mins by spectrophotometric method relative to control; assay type: functional
[8] = Antioxidant activity assessed as DPPH radical scavenging activity at 10 uM/ml incubated for 20 mins by spectrophotometric method relative to control; assay type: functional
[9] = Ulcerogenicity in Sprague-Dawley rat assessed as formation of ulcer at 20 mg/kg, po after 1 hr by microscopic analysis; assay type: toxicity, organism-based; details: in vivo
[10] = tested on: Rattus norvegicus; assay: Analgesic activity in Wistar albino rat assessed as reaction time at 12.5 mg/kg, ip measured after 120 mins for 15 secs by hot plate method (reference value: 4.32 +/- 0.52 sec); assay type: functional
[11] = tested on: Rattus norvegicus; assay: Antiinflammatory activity in Sprague-Dawley rat model of carrageenan-induced thermal hyperalgesia assessed as paw withdrawal latency time at 50 mg/kg, po administered 1 hr prior to carrageenan challenge and measured after 2 hrs by planter test (reference value: 6.17 +/- 0.58 sec); assay type: functional
[12] = tested on: Rattus norvegicus; assay: Antiinflammatory activity in Wistar albino rat assessed as reduction in carrageenan-induced paw volume at 12.5 mg/kg, ip measured after 3 hrs by plethysmometric method (reference value: 1.75 +/- 0.33 ml); assay type: functional
[13] = tested on: Rattus norvegicus; assay: Antiinflammatory activity in Wistar albino rat assessed as reduction in carrageenan-induced paw edema at 25 mg/kg, ip measured after 2 hrs by plethysmometric method (reference value: 1.58 +/- 0.21 ml); assay type: functional
[14] = tested on: Rattus norvegicus; assay: Antiinflammatory activity in Sprague-Dawley rat model of carrageenan-induced thermal hyperalgesia assessed as paw withdrawal latency pressure at 50 mg/kg, po administered 1 hr prior to carrageenan challenge and measured after 3 hrs by Von-frey test (reference value: 146.61 +/- 1.58 g); assay type: functional
[15] = tested on: Rattus norvegicus; assay: Antiinflammatory activity in Sprague-Dawley rat model of carrageenan-induced thermal hyperalgesia assessed as paw withdrawal latency pressure at 50 mg/kg, po administered 1 hr prior to carrageenan challenge and measured after 2 hrs by Randall-Selitto test (reference value: 231.13 +/- 3.15 g); assay type: functional
[16] = tested on: Rattus norvegicus; assay: Antiinflammatory activity in Sprague-Dawley rat model of carrageenan-induced thermal hyperalgesia assessed as paw withdrawal latency pressure at 50 mg/kg, po administered 1 hr prior to carrageenan challenge and measured after 5 hrs by Von-frey test (reference value: 169.58 +/- 4.26 g); assay type: functional
[17] = tested on: Rattus norvegicus; assay: Analgesic activity in Wistar albino rat assessed as reaction time at 12.5 mg/kg, ip measured after 30 mins for 15 secs by hot plate method (reference value: 4.21 +/- 0.41 sec); assay type: functional
[18] = tested on: Rattus norvegicus; assay: Antiinflammatory activity in Sprague-Dawley rat model of carrageenan-induced thermal hyperalgesia assessed as paw withdrawal latency time at 50 mg/kg, po administered 1 hr prior to carrageenan challenge and measured after 4 hrs by planter test (reference value: 5.47 +/- 0.84 sec); assay type: functional
[19] = tested on: Rattus norvegicus; assay: Antiinflammatory activity in Sprague-Dawley rat model of carrageenan-induced thermal hyperalgesia assessed as paw withdrawal latency time at 50 mg/kg, po administered 1 hr prior to carrageenan challenge and measured after 5 hrs by planter test (reference value: 7.5 +/- 0.74 sec); assay type: functional
[20] = tested on: Rattus norvegicus; assay: Antiinflammatory activity in Sprague-Dawley rat model of carrageenan-induced thermal hyperalgesia assessed as paw withdrawal latency pressure at 50 mg/kg, po administered 1 hr prior to carrageenan challenge and measured after 1 hr by Randall-Selitto test (reference value: 246.55 +/- 1.05 g); assay type: functional
[21] = tested on: Rattus norvegicus; assay: Antiinflammatory activity in Wistar albino rat assessed as reduction in carrageenan-induced paw volume at 12.5 mg/kg, ip measured after 2 hrs by plethysmometric method (reference value: 1.58 +/- 0.21 ml); assay type: functional
[22] = tested on: Rattus norvegicus; assay: Antiinflammatory activity in Sprague-Dawley rat model of carrageenan-induced thermal hyperalgesia assessed as paw withdrawal latency time at 50 mg/kg, po administered 1 hr prior to carrageenan challenge and measured after 3 hrs by planter test (reference value: 4.13 +/- 0.45 sec); assay type: functional
[23] = tested on: Rattus norvegicus; assay: Antiinflammatory activity in Wistar albino rat assessed as reduction in carrageenan-induced paw edema at 25 mg/kg, ip measured after 1 hr by plethysmometric method (reference value: 1.43 +/- 0.19 ml); assay type: functional
[24] = tested on: Rattus norvegicus; assay: Analgesic activity in Wistar albino rat assessed as reaction time at 12.5 mg/kg, ip measured after 60 mins for 15 secs by hot plate method (reference value: 4.67 +/- 0.52 sec); assay type: functional
[25] = tested on: Rattus norvegicus; assay: Analgesic activity in Wistar albino rat assessed as reaction time at 25 mg/kg, ip measured after 30 mins for 15 secs by hot plate method (reference value: 4.21 +/- 0.41 sec); assay type: functional
[26] = tested on: Rattus norvegicus; assay: Analgesic activity in Wistar albino rat assessed as reaction time at 25 mg/kg, ip measured after 180 mins for 15 secs by hot plate method (reference value: 3.87 +/- 0.38 sec); assay type: functional
[27] = tested on: Rattus norvegicus; assay: Antiinflammatory activity in Sprague-Dawley rat model of carrageenan-induced thermal hyperalgesia assessed as paw withdrawal latency pressure at 50 mg/kg, po administered 1 hr prior to carrageenan challenge and measured after 3 hrs by Randall-Selitto test (reference value: […] g); assay type: functional
[28] = tested on: Rattus norvegicus; assay: Analgesic activity in Wistar albino rat assessed as reaction time at 25 mg/kg, ip measured after 60 mins for 15 secs by hot plate method (reference value: 4.67 +/- 0.52 sec); assay type: functional
[29] = tested on: Rattus norvegicus; assay: Antiinflammatory activity in Sprague-Dawley rat model of carrageenan-induced thermal hyperalgesia assessed as paw withdrawal latency pressure at 50 mg/kg, po administered 1 hr prior to carrageenan challenge and measured after 2 hrs by Von-frey test (reference value: 146.47 +/- 5.12 g); assay type: functional
[30] = tested on: Rattus norvegicus; assay: Antiinflammatory activity in Sprague-Dawley rat model of carrageenan-induced thermal hyperalgesia assessed as paw withdrawal latency pressure at 50 mg/kg, po administered 1 hr prior to carrageenan challenge and measured after 1 hr by Von-frey test (reference value: 159.88 +/- 4.66 g); assay type: functional
[31] = tested on: Rattus norvegicus; assay: Antiinflammatory activity in Sprague-Dawley rat model of carrageenan-induced thermal hyperalgesia assessed as paw withdrawal latency time at 50 mg/kg, po administered 1 hr prior to carrageenan challenge and measured after 1 hr by planter test (reference value: 8.88 +/- 0.52 sec); assay type: functional
[32] = tested on: Rattus norvegicus; assay: Antiinflammatory activity in Sprague-Dawley rat model of carrageenan-induced thermal hyperalgesia assessed as paw withdrawal latency pressure at 50 mg/kg, po administered 1 hr prior to carrageenan challenge and measured after 3 hrs by Randall-Selitto test (reference value: 176.84 +/- 8.1 g); assay type: functional
[33] = tested on: Rattus norvegicus; assay: Antiinflammatory activity in Wistar albino rat assessed as reduction in carrageenan-induced paw edema at 25 mg/kg, ip measured after 3 hrs by plethysmometric method (reference value: 1.75 +/- 0.33 ml); assay type: functional
[34] = tested on: Rattus norvegicus; assay: Antiinflammatory activity in Wistar albino rat assessed as reduction in carrageenan-induced paw volume at 12.5 mg/kg, ip measured after 1 hr by plethysmometric method (reference value: 1.43 +/- 0.19 ml); assay type: functional
[35] = tested on: Rattus norvegicus; assay: Antiinflammatory activity in Sprague-Dawley rat model of carrageenan-induced thermal hyperalgesia assessed as paw withdrawal latency pressure at 50 mg/kg, po administered 1 hr prior to carrageenan challenge and measured after 3 hrs by Von-frey test (reference value: 31.65 +/- 3.33 g); assay type: functional
[36] = tested on: Rattus norvegicus; assay: Analgesic activity in Wistar albino rat assessed as reaction time at 12.5 mg/kg, ip measured after 180 mins for 15 secs by hot plate method (reference value: 3.87 +/- 0.38 sec); assay type: functional
[37] = tested on: Rattus norvegicus; assay: Analgesic activity in Wistar albino rat assessed as reaction time at 25 mg/kg, ip measured after 120 mins for 15 secs by hot plate method (reference value: 4.32 +/- 0.52 sec); assay type: functional

inhibition [1]: 12.5%
inhibition [2]: 45.6%
SMILES: O=C1C=C(N2CCCC2)CCC1

inhibition [1]: 46.5%
inhibition [2]: 47.1%
SMILES: N#Cc1ccc(NC2=CC(=O)CCC2)cc1

inhibition [1]: 11.2%
inhibition [2]: 34.2%
SMILES: Cc1ccc(NC2=CC(=O)CCC2)cc1

IC50 [5]: < 20 µM
SMILES: O=C1O[C@H]([C@@H](O)CO)C(O)=C1O [ASCORBIC ACID]
Activity [3]: 74.7%
Activity [4]: 50.8%
Activity [6]: 91.1%
Activity [7]: 100%
Activity [8]: 27.1%

inhibition [1]: 19.7%
inhibition [2]: 41.9%
SMILES: O=C1C=C(Nc2ccccc2)CCC1

inhibition [1]: 28.6%
inhibition [2]: 43.9%
SMILES: CC1(C)CC(=O)C=C(NCc2ccco2)C1

inhibition [1]: 10.7%
inhibition [2]: 36.6%
SMILES: COc1ccc(NC2=CC(=O)CCC2)cc1

SMILES: COc1ccc2c(c1)c(CC(=O)O)c(C)n2C(=O)c1ccc(Cl)cc1 [INDOMETHACIN]
Activity [9]: Toxic

inhibition [1]: 31%
inhibition [2]: 24.2%
SMILES: O=C1C=C(Nc2ccc([N+](=O)[O-])cc2)CCC1

SMILES: Cc1ccc(-c2cc(C(F)(F)F)nn2-c2ccc(S(N)(=O)=O)cc2)cc1 [CELECOXIB]
Time [10]: 10.98 s
Time [11]: 10.98 s
Activity [12]: 1.36 mL
Activity [13]: 1.23 mL
Activity [14]: 176.87 g
Activity [15]: 273.46 g
Activity [16]: 180.82 g
Time [17]: 5.75 s
Time [18]: 8.36 s
Time [19]: 9.22 s
Activity [20]: 270.89 g
Activity [21]: 1.38 mL
Time [22]: 9.48 s
Activity [23]: 1.3 mL
Time [24]: 8.93 s
Time [25]: 6.34 s
Time [26]: 10.87 s
Activity [27]: 269.55 g
Time [28]: 8.93 s
Activity [29]: 176.63 g
Activity [30]: 176.45 g
Time [31]: 11.54 s
Activity [32]: 270.66 g
Activity [33]: 1.16 mL
Activity [34]: 1.34 mL
Activity [35]: 176.87 g
Time [36]: 9.92 s
Time [37]: 12.08 s

inhibition [1]: 32%
inhibition [2]: 47.4%
SMILES: O=C1C=C(Nc2cc(Cl)ccc2F)CCC1

inhibition [1]: 16.4%
inhibition [2]: 42.6%
SMILES: CC1(C)CC(=O)C=C(Nc2ccc(Cl)cc2)C1

inhibition [1]: 12.8%
inhibition [2]: 27.8%
SMILES: CSc1ccc(NC2=CC(=O)CCC2)cc1
